Data taken from patent US8637683B2, “Macrocyclic lactone derivatives for the treatment of cancer” (Piramal Enterprises Limited, priority 2009, dated 2014).

What was measured:
[1] = test system: panel of 12 human tumor cell lines; test: Monolayer assay, panel of 12 human tumor cell lines; assay type: cell-based; details: for IC50 / Mean IC70: mean over panel of 12 human tumor cell lines, test range 0.0001 μM-10 μM; for % Selectivity / Rating (selectivity) / Selectivity Total (cell lines with individual IC70 < 1/3 mean IC70) / in vitro antitumor activity: panel of 12 human tumor cell lines
Experimental: (§1) Cell lines were routinely passaged once or twice weekly and maintained in culture for upto 20 passages. All cells were grown at 37° C. in a humidified atmosphere with 5% CO2 in RPMI 1640 medium supplemented with 10% (v/v) fetal calf serum (FCS) and 0.1 mg/mL gentamicin (medium and all other components from PAA, Cölbe, Germany). Authenticity of all cell lines was proven at the DSMZ by STR (short tandem repeat) analysis, a PCR based DNA-fingerprinting methodology.
Stock solutions of the test compounds (330 μg/mL in DMSO) were prepared and stored in small aliquots (200 μL) at −20° C. An aliquot of the stock solution was thawed on the day of use and stored at room temperature prior to and during dosing. The subsequent dilutions were done with complete RPMI 1640 cell culture medium as follows: the stock solution was diluted 1:22 followed by serial dilutions finally resulting in a (compared to the test concentration) 15-fold higher concentration. For the final dilution step (1:15), 10 μL/well of the respective compound solution was directly added to 140 μL/well culture medium. Test compounds were tested at […]. Each concentration was evaluated in triplicate.
A modified propidium iodide assay was used to assess the effect of the test compounds on the growth of the human tumor cell lines and was designed as in reference, Anti-cancer Drugs, 6, 522-532, (1995), the disclosure of which is incorporated by reference for the teaching of the assay.
Cells were plated in 96-well flat-bottom microtiter plates at a cell density of 4,000 to 10,000 cells/well. After a 24 h recovery period to allow the cells to resume exponential growth, the test compounds were applied at five concentrations in log increments in triplicates in two independent runs. After 4 days of treatment, the medium with/without test compounds including all floating (i.e., dead) cells was aspirated and replaced by 200 μL of an aqueous propidium iodide (PI) solution (7 μg/mL). To measure the viable cell number, the remaining adherent cells were killed and permeabilized by repeated freezing and thawing and PI fluorescence was measured using the Cytofluor 4000 microplate reader (excitation λ=530 nm, emission λ=620 nm), which was a measure for the number of cells which survived treatment. Pharmacological effects on cell proliferation and survival were expressed as Test/Control×100 (% T/C) values, with T and C representing the fluorescence read-outs for wells with and without test compound, respectively, i.e. T/C represents the ratio of viable cell numbers following incubation of cell line with/without test compound. Based on the T/C values IC50 and IC70 values, being the drug concentration necessary to inhibit cell growth by 50% (T/C=50%) and 70% (T/C=30%), respectively, were determined by plotting compound concentration versus cell viability (T/C). IC-values were calculated based on the principle of linear two-point curve fit.

LXF 526L = test: Monolayer assay (modified propidium iodide), LXF 526L; assay type: cell-based, human; details: Lung, 4 days of treatment
Source text: (§2) Oncotest GmbH, Germany's proprietary tumor cell line panel comprises 40 cell lines. These cell lines were derived from 15 different tumor histotypes, each represented by 1 to 6 different cell lines. Cell lines were established from cancer of the bladder (3), colon (4), head and neck (1), lung (6), breast (3), pancreas (3), prostate (4), ovary (2), kidney (3), liver (1), stomach (1) and the uteri body (1), as well as from melanoma (3), sarcoma (2) and pleuramesothelioma (3). Out of these 40 cell lines, 24 cell lines were established at Oncotest, from patient-derived tumor xenografts. The other 16 cell lines were either provided by the NCI (Bethesda; MD, USA) or were purchased from ATCC (Rockville, Md., USA) or DSMZ (Braunschweig, Germany).
as §1, with “Authenticity of all cell lines was proven at the DSMZ by STR (short tandem repeat) analysis, a PCR based DNA-fingerprinting methodology.” left out
(§3) Stock solutions of the test compounds (330 μg/mL in DMSO) were prepared and stored in small aliquots (200 μL) at −20° C. […] Each concentration was evaluated in triplicate. […]
(§4) Cells were plated in 96-well flat-bottom microtiter plates at a cell density of 4,000 to 10,000 cells/well. […] To measure the viable cell number, the remaining adherent cells were killed and permeabilized by repeated freezing and thawing and PI fluorescence was measured using the Cytofluor 4000 microplate reader (excitation λ=530 nm, emission λ=620 nm), which was a measure for the number of cells which survived treatment. Pharmacological effects on cell proliferation and survival were expressed as Test/Control×100 (% T/C) values, with T and C representing the fluorescence read-outs for wells with and without test compound, respectively, i.e. T/C represents the ratio of viable cell numbers following incubation of cell line with/without test compound. […] IC-values were calculated based on the principle of linear two-point curve fit. […]

MDA 231 = test: Monolayer assay (modified propidium iodide), MDA 231; assay type: cell-based, human; details: MDA 231, Mammary; 4 days of treatment
Source text: as §2
as §1, with “Authenticity of all cell lines was proven at the DSMZ by STR (short tandem repeat) analysis, a PCR based DNA-fingerprinting methodology.” left out
as §3, §4

CXF 269L = test: Monolayer assay (modified propidium iodide), CXF 269L; assay type: cell-based, human; details: Colon, 4 days of treatment
Source text: as §2
as §1, with “Authenticity of all cell lines was proven at the DSMZ by STR (short tandem repeat) analysis, a PCR based DNA-fingerprinting methodology.” left out
as §3, §4

T 24 = test: Monolayer assay (modified propidium iodide), T 24; assay type: cell-based, human; details: T 24, Bladder; 4 days of treatment
Source text: as §2
as §1, with “Authenticity of all cell lines was proven at the DSMZ by STR (short tandem repeat) analysis, a PCR based DNA-fingerprinting methodology.” left out
as §3, §4

SMILES | IC50 [1] | Mean IC70 [1] | % Selectivity [1] | Rating (selectivity) [1] | Selectivity Total (cell lines with individual IC70 < 1/3 mean IC70) [1] | in vitro antitumor activity [1] | IC70 (LXF 526L) | IC70 (MDA 231) | IC70 (CXF 269L) | IC70 (T 24)
C/C=C/C(O)C(C)/C=C/C(=NOCC(=O)O)C(C)C(O)C(C)C1OC(=O)/C(OC)=C/C(C)=C/C(C)C(O)C(CC)C(O)C(C)C/C(C)=C/C=C/C1OC (stereo in doubt) [Example 10, ((Z)-((6E,10E)-2-((4E,6E,14E,16Z)-11-Ethyl-10,12-dihydroxy-3,17-dimethoxy-7,9,13,15-tetramethyl-18-oxooxacyclooctadeca-4,6,14,16-tetraen-2-yl)-3,9-dihydroxy-4,8-dimethyldodeca-6,10-dien-5-ylidene)aminooxy)acetic acid] | 514 nM | 1258 nM | 8% | (+) (+ (4% > selective >= 12%)) | 1/12 | showed in vitro antitumor activity | – | – | – | –
C/C=C/C(O)C(C)/C=C/C(=NOCC(=O)N1CCN(C)CC1)C(C)C(O)C(C)C1OC(=O)/C(OC)=C/C(C)=C/C(C)C(O)C(CC)C(O)C(C)C/C(C)=C/C=C/C1OC (stereo in doubt) [Example 11, (3Z,5E,13E,15E)-18-((5Z,6E,10E)-3,9-Dihydroxy-4,8-dimethyl-5-(2-(4-methylpiperazin-1-yl)-2-oxoethoxyimino)dodeca-6,10-dien-2-yl)-9-ethyl-8,10-dihydroxy-3,17-dimethoxy-5,7,11,13-tetramethyloxacyclooctadeca-3,5,13,15-tetraen-2-one] | 6 nM | 20 nM | 25% | (+ + +) | 3/12 | showed in vitro antitumor activity | – | – | – | –
C/C=C/C(O)C(C)/C=C/C(=NOCC(=O)NCCO)C(C)C(O)C(C)C1OC(=O)/C(OC)=C/C(C)=C/C(C)C(O)C(CC)C(O)C(C)C/C(C)=C/C=C/C1OC (stereo in doubt) [Example 12, 2-((Z)-((6E,10E)-2-((4E,6E,14E,16Z)-11-Ethyl-10,12-dihydroxy-3,17-dimethoxy-7,9,13,15-tetramethyl-18-oxooxacyclooctadeca-4,6,14,16-tetraen-2-yl)-3,9-dihydroxy-4,8-dimethyldodeca-6,10-dien-5-ylidene)aminooxy)-N-(2-hydroxyethyl)acetamide] | 2 nM | 6 nM | 42% | (+ + +) | 5/12 | showed in vitro antitumor activity | – | – | – | –
C/C=C/C(O)C(C)/C=C/C(=NOCC(=O)N1CCCCC1)C(C)C(O)C(C)C1OC(=O)/C(OC)=C/C(C)=C/C(C)C(O)C(CC)C(O)C(C)C/C(C)=C/C=C/C1OC (stereo in doubt) [Example 13, (3Z,5E,13E,15E)-18-((5Z,6E,10E)-3,9-Dihydroxy-4,8-dimethyl-5-(2-oxo-2-(piperidin-1-yl)ethoxyimino)dodeca-6,10-dien-2-yl)-9-ethyl-8,10-dihydroxy-3,17-dimethoxy-5,7,11,13-tetramethyloxacyclooctadeca-3,5,13,15-tetraen-2-one] | 30 nM | 97 nM | 17% | (+ +) | 2/12 | showed in vitro antitumor activity | – | – | – | –
C/C=C/C(O)C(C)/C=C/C(=NOCC(=O)N1CCC(N2CCCCC2)CC1)C(C)C(O)C(C)C1OC(=O)/C(OC)=C/C(C)=C/C(C)C(O)C(CC)C(O)C(C)C/C(C)=C/C=C/C1OC (stereo in doubt) [Example 14, (3Z,5E,13E,15E)-18-((5Z,6E,10E)-5-(2-(1,4′-Bipiperidin-1′-yl)-2-oxoethoxyimino)-3,9-dihydroxy-4,8-dimethyldodeca-6,10-dien-2-yl)-9-ethyl-8,10-dihydroxy-3,17-dimethoxy-5,7,11,13-tetramethyloxacyclooctadeca-3,5,13,15-tetraen-2-one] | 358 nM | 762 nM | 8% | (+) (+ (4% > selective >= 12%)) | 1/12 | showed in vitro antitumor activity | – | – | – | –
C/C=C/C(O)C(C)/C=C/C(=NOCC(=O)NCc1ccc(F)cc1)C(C)C(O)C(C)C1OC(=O)/C(OC)=C/C(C)=C/C(C)C(O)C(CC)C(O)C(C)C/C(C)=C/C=C/C1OC (stereo in doubt) [Example 15, 2-((Z)-((6E,10E)-2-((4E,6E,14E,16Z)-11 Ethyl-10,12-dihydroxy-3,17-dimethoxy-7,9,13,15-tetramethyl-18-oxooxacyclooctadeca-4,6,14,16-tetraen-2-yl)-3,9-dihydroxy-4,8-dimethyldodeca-6,10-dien-5-ylidene)aminooxy)-N-(4-fluorobenzyl)acetamide] | 1 nM | 3 nM | 50% | (+++) (+++ (% selective > 20%)) | 6/12 | showed in vitro antitumor activity | – | – | – | –
C/C=C/C(O)C(C)/C=C/C(=N\OC)C(C)C(O)C(C)C1OC(=O)/C(OC)=C/C(C)=C/C(C)C(O)C(CC)C(O)C(C)C/C(C)=C/C=C/C1OC (stereo not shown) [Example 8, (3Z,5E,13E,15E)-18-((5E,6E,10E)-3,9-Dihydroxy-5-(methoxyimino)-4,8-dimethyldodeca-6,10-dien-2-yl)-9-ethyl-8,10-dihydroxy-3,17-dimethoxy-5,7,11,13-tetramethyloxacycloocta deca-3,5,13,15-tetraen-2-one] | – | – | – | – | – | – | ≤ 0.3 ng/mL | ≤ 0.3 ng/mL | ≤ 0.3 ng/mL | ≤ 0.3 ng/mL
